# Experimental data published in paper PMC5818615, “Use of HuH6 and other human-derived hepatoma lines for the detection of genotoxins: a new hope for laboratory animals?” (Archives of Toxicology, 2017).
# Like-named read-outs stand apart in the source and are kept apart here.
# What was measured:
# [1] = tested on: HCC 1.2 cells; conditions: 48 h
# Description: (§1) The SCGE experiments were conducted as described in an international guideline (Tice et al. [2000]). Reagents for the assays (lysis solution and alkaline electrophoresis buffer) and agarose-coated slides were prepared according to Collins and Dusinska ([2009]).
# (§2) Briefly, cells were sub-cultured in 1.0 ml medium in 24–well tissue-culture plates (Sarstedt Inc., Newton, NC, USA). After 24 h, the media were changed and the cells exposed to different concentrations of the test compounds or to the solvent controls (PBS or DMSO). […] To terminate the treatment, the cells were washed twice with PBS (1.0 ml), trypsinized (100 µl T/E per well, 4 min) and then resuspended in 400 µl culture medium containing FBS. Subsequently, the suspensions were transferred to Eppendorf tubes and centrifuged (200g, 5 min). Cell pellets were resuspended in cold PBS.
# (§3) In all experiments, acute toxic effects were determined with a CASY® Cell Counter and Analyzer System (Schärfe-System GmbH, Reutlingen, Germany) (Lindl et al. [2005]). SCGE assays were only performed when the viability of the cultures was ≥ 70% (Koppen et al. [2017]). Per experimental point, two cultures were set up in parallel and from each one slide with two separate gels (30,000 cells/gel) was prepared. After unwinding (40 min, pH > 13) and electrophoresis (30 min, 0.75 V/cm, ~ 300 mA, 4 °C, pH > 13), 50 cells were evaluated per gel (200 cells per experimental point). As an endpoint, we determined the tail intensities (“% DNA in tail”) with a computer-aided system Comet Assay IV (Perceptive Instruments, Bury St Edmunds, UK), which is at present the most widely used parameter (Collins et al. [2008]; Moller [2006]). For each gel, the median of the tail intensity was calculated.
# [2] = tested on: Hep3B cells; conditions: Hep3B, 48 h
# Description: as §1, §2, §3
# [3] = tested on: HepG2 cells; conditions: 48 h
# Description: as §1, §2, §3
# [4] = tested on: HepaRG cells; conditions: for Result of SCGE experiments (in words): HepaRG cells; for % DNA in tail: HepaRG, 48 h
# Description: as §1, §2, §3
# [5] = tested on: HuH6 cells; conditions: 48 h
# Description: as §1, §2, §3
# [6] = tested on: HuH7 cells; conditions: 48 h
# Description: as §1, §2, §3
# [7] = tested on: JHH6 cells; conditions: 48 h, control 0.59 ± 0.21
# Description: as §1, §2, §3
# [8] = tested on: PLC/PRF cells; conditions: PLC/PRF, 48 h
# Description: as §1, §2, §3
# [9] = tested on: SK-Hep1 cells; conditions: 48 h
# Description: as §1, §2, §3
# [10] = tested on: SNU-398 cells; conditions: 48 h
# Description: as §1, §2, §3
# [11] = tested on: SNU-449 cells; conditions: 48 h
# Description: as §1, §2, §3
# [12] = tested on: WRL68 cells; conditions: 48 h
# Description: as §1, §2, §3
# [13] = tested on: human derived liver cell lines; conditions: for Number of the twelve lines sensitive towards the compound: SCGE experiments without exogenous enzyme activation mix
# Description: as §1, §2, §3
# [14] = ref IARC [1993]; cited from earlier work
# [15] = tested on: primary human hepatocytes; conditions: ref Wilkening et al. [2003]; cited from earlier work
compound,measurement,setting,value
"Cn1c(N)nc2c3cccnc3ccc21 [IQ, 2-amino-3-methyl-3H-imidazo[4,5-f]quinolone]",% DNA in tail,"[1]; HCC 1.2, IQ 50.0 µM, control 2.93 ± 1.40",1.86 ± 0.44%
same,% DNA in tail,"[1]; HCC 1.2, IQ 100.0 µM, control 2.93 ± 1.40, starred P ≤ 0.05",7.29 ± 1.87%
same,% DNA in tail,"[2]; IQ 50.0 µM, control 0.92 ± 0.58",0.88 ± 0.71%
same,% DNA in tail,"[2]; IQ 100.0 µM, control 0.92 ± 0.58",1.75 ± 1.45%
same,% DNA in tail,"[3]; HepG2, IQ 50.0 µM, control 2.16 ± 0.54",1.32 ± 0.91%
same,% DNA in tail,"[3]; HepG2, IQ 100.0 µM, control 2.16 ± 0.54, starred P ≤ 0.05",5.38 ± 2.02%
same,Result of SCGE experiments (in words),[4],negative results
same,% DNA in tail,"[4]; IQ 50.0 µM, control 2.34 ± 2.92",2.39 ± 4.10%
same,% DNA in tail,"[4]; IQ 100.0 µM, control 2.34 ± 2.92",2.38 ± 1.97%
same,% DNA in tail,"[5]; HuH6, IQ 50.0 µM, control 4.01 ± 1.68",5.91 ± 3.05%
same,% DNA in tail,"[5]; HuH6, IQ 100.0 µM, control 4.01 ± 1.68, starred P ≤ 0.05",10.82 ± 5.71%
same,% DNA in tail,"[6]; HuH7, IQ 50.0 µM, control 1.29 ± 1.30",2.16 ± 0.91%
same,% DNA in tail,"[6]; HuH7, IQ 100.0 µM, control 1.29 ± 1.30",1.11 ± 0.60%
same,% DNA in tail,"[7]; JHH6, IQ 50.0 µM",1.29 ± 1.55%
same,% DNA in tail,"[7]; JHH6, IQ 100.0 µM",0.93 ± 0.67%
same,% DNA in tail,"[8]; IQ 50.0 µM, control 2.47 ± 2.08",5.17 ± 4.50%
same,% DNA in tail,"[8]; IQ 100.0 µM, control 2.47 ± 2.08",2.84 ± 2.65%
same,% DNA in tail,"[9]; SK-Hep1, IQ 50.0 µM, control 0.59 ± 0.24",0.62 ± 0.47%
same,% DNA in tail,"[9]; SK-Hep1, IQ 100.0 µM, control 0.59 ± 0.24",1.43 ± 0.95%
same,% DNA in tail,"[10]; SNU-398, IQ 50.0 µM, control 1.02 ± 0.88",1.42 ± 0.72%
same,% DNA in tail,"[10]; SNU-398, IQ 100.0 µM, control 1.02 ± 0.88",1.20 ± 0.81%
same,% DNA in tail,"[11]; SNU-449, IQ 50.0 µM, control 1.20 ± 1.18",3.67 ± 2.95%
same,% DNA in tail,"[11]; SNU-449, IQ 100.0 µM, control 1.20 ± 1.18",1.46 ± 1.21%
same,% DNA in tail,"[12]; WRL68, IQ 50.0 µM, control 0.76 ± 0.77",1.15 ± 1.44%
same,% DNA in tail,"[12]; WRL68, IQ 100.0 µM, control 0.76 ± 0.77",0.56 ± 0.67%
same,Number of the twelve lines sensitive towards the compound,[13],three
same,Doses required to cause significant effects in SCGE assays,"[13]; different hepatic lines, in most cases",≥ 100 mM
same,IARC classification,[14],"Causes guanine adducts, clear evidence for carcinogenicity in experiments with rodents IARC: Group 2A"
"Cn1c(N)nc2ncc(-c3ccccc3)cc21 [PhIP, 2-amino-1-methyl-6-phenylimidazo[4,5-b]pyridine]",% DNA in tail,"[1]; HCC 1.2, PhIP 50.0 µM, control 6.61 ± 2.14, starred P ≤ 0.05",17.5 ± 4.84%
same,% DNA in tail,"[1]; HCC 1.2, PhIP 100.0 µM, control 6.61 ± 2.14, starred P ≤ 0.05",15.1 ± 2.32%
same,% DNA in tail,"[1]; HCC 1.2, PhIP 300.0 µM, control 6.61 ± 2.14, starred P ≤ 0.05",14.8 ± 2.63%
same,% DNA in tail,"[2]; PhIP 50.0 µM, control 1.56 ± 0.18",1.43 ± 0.24%
same,% DNA in tail,"[2]; PhIP 100.0 µM, control 1.56 ± 0.18",0.82 ± 0.53%
same,% DNA in tail,"[3]; HepG2, PhIP 50.0 µM, control 2.90 ± 1.03, starred P ≤ 0.05",6.92 ± 2.00%
same,% DNA in tail,"[3]; HepG2, PhIP 100.0 µM, control 2.90 ± 1.03, starred P ≤ 0.05",6.78 ± 1.37%
same,Result of SCGE experiments (in words),[4],detected
same,% DNA in tail,"[4]; PhIP 50.0 µM, control 0.53 ± 0.66, starred P ≤ 0.05",4.82 ± 3.57%
same,% DNA in tail,"[4]; PhIP 100.0 µM, control 0.53 ± 0.66",2.86 ± 1.73%
same,% DNA in tail,"[5]; HuH6, PhIP 50.0 µM, control 1.81 ± 1.15, starred P ≤ 0.05",11.51 ± 3.64%
same,% DNA in tail,"[5]; HuH6, PhIP 100.0 µM, control 1.81 ± 1.15, starred P ≤ 0.05",8.67 ± 2.67%
same,% DNA in tail,"[5]; HuH6, PhIP 300.0 µM, control 1.81 ± 1.15, starred P ≤ 0.05",24.7 ± 2.15%
same,% DNA in tail,"[6]; HuH7, PhIP 50.0 µM, control 5.12 ± 1.05",5.35 ± 2.84%
same,% DNA in tail,"[6]; HuH7, PhIP 100.0 µM, control 5.12 ± 1.05",9.21 ± 2.26%
same,% DNA in tail,"[6]; HuH7, PhIP 300.0 µM, control 5.12 ± 1.05",3.55 ± 2.08%
same,% DNA in tail,"[7]; JHH6, PhIP 50.0 µM",0.93 ± 1.09%
same,% DNA in tail,"[7]; JHH6, PhIP 100.0 µM",1.44 ± 0.53%
same,% DNA in tail,"[8]; PhIP 50.0 µM, control 3.82 ± 1.22",2.51 ± 0.56%
same,% DNA in tail,"[8]; PhIP 100.0 µM, control 3.82 ± 1.22",4.00 ± 3.72%
same,% DNA in tail,"[8]; PhIP 300.0 µM, control 3.82 ± 1.22",2.43 ± 2.03%
same,% DNA in tail,"[9]; SK-Hep1, PhIP 50.0 µM, control 2.84 ± 2.06",5.18 ± 1.19%
same,% DNA in tail,"[9]; SK-Hep1, PhIP 100.0 µM, control 2.84 ± 2.06",5.83 ± 1.06%
same,% DNA in tail,"[9]; SK-Hep1, PhIP 300.0 µM, control 2.84 ± 2.06",5.77 ± 4.30%
same,% DNA in tail,"[10]; SNU-398, PhIP 50.0 µM, control 5.60 ± 3.26",2.92 ± 1.18%
same,% DNA in tail,"[10]; SNU-398, PhIP 100.0 µM, control 5.60 ± 3.26",7.04 ± 5.97%
same,% DNA in tail,"[10]; SNU-398, PhIP 300.0 µM, control 5.60 ± 3.26",10.3 ± 1.06%
same,% DNA in tail,"[11]; SNU-449, PhIP 50.0 µM, control 2.12 ± 0.59",2.02 ± 0.81%
same,% DNA in tail,"[11]; SNU-449, PhIP 100.0 µM, control 2.12 ± 0.59",3.06 ± 1.08%
same,% DNA in tail,"[11]; SNU-449, PhIP 300.0 µM, control 2.12 ± 0.59",1.17 ± 0.83%
same,% DNA in tail,"[12]; WRL68, PhIP 50.0 µM, control 2.89 ± 1.16",5.17 ± 3.21%
same,% DNA in tail,"[12]; WRL68, PhIP 100.0 µM, control 2.89 ± 1.16",3.77 ± 1.36%
same,% DNA in tail,"[12]; WRL68, PhIP 300.0 µM, control 2.89 ± 1.16",3.39 ± 3.35%
same,Number of the twelve lines sensitive towards the compound,[13],four
same,Sensitivity of primary hepatocytes compared with HepG2,[15],substantially stronger effects
same,IARC classification,[14],Causes guanine adducts that induces tumors at multiple sites in animal models IARC: Group 2B
